The test system of this experiment is CEM cells HIV-1 protection, formazan growth assay. Briefly: NCI AIDS Antiviral Assay. The note with it: for IC50: measured here: growth of uninfected CEM cells. The method, boiled down:
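Screen of anti-HIV-1 activity in human CEM cells using a formazan-based growth measurement at five drug concentrations. Hits with 50% or greater protection were repeated, and confirmation required reproducible complete protection.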

Activity calls are given as the source filed them.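 Rule for the calls: active = compounds giving half or more protection of infected cells from virus-caused growth loss, again on retest; inactive = the rest.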 Where a SMILES comes first, the peptide text is derived from it. The star is where a group is joined. Cbz = O=C(OCc1ccccc1)*; NHNH2 = NN*

With `C=CCc1oc(C)nc1CCCC`, the EC50 (commonly the concentration giving half of the maximal effect) was > 200 µM and the IC50 (commonly the midpoint of a concentration-inhibition curve) was > 200 µM.

Take `Cc1ccc(/C=C2\CCOC2=O)cc1`: the EC50 is > 138 µM and the IC50 is > 138 µM.

Consider `O=S(Cc1cc2c(cc1Br)OCO2)c1ccccc1` (stereo not drawn), for which the EC50 is > 39.8 µM and the IC50 is > 39.8 µM.

Take `N#CC1C2C1C1C=CC2n2c(=O)n(-c3ccccc3)c(=O)n21` (stereo not drawn): the EC50 was > 200 µM and the concentration for half-maximal inhibition (IC50) was > 200 µM.

On to `O=C1c2ccccc2C(=O)N1CCc1c[nH]c2ccccc12`, for which the EC50 is > 200 µM and the IC50 was > 200 µM.

In the case of `Cc1occc1C(=S)Nc1ccc(Cl)c(/C=N/OC(C)C)c1`, the EC50 is 0.0263 µM and the IC50 is 18.2 µM.

On to `C=C(C)C(OC(C)=O)C(OC(C)=O)c1c(OC)ccc2ccc(=O)oc12` (stereo not drawn), for which the EC50 was > 50.1 µM and the IC50 was > 50.1 µM.

Consider `C/C(=N\NS(=O)(=O)c1ccc([N+](=O)[O-])cc1)c1ccc[n+]([O-])n1`, for which the result was inactive.

For `O=C(CC1(O)C(=O)Nc2c(Cl)ccc(Cl)c21)c1ccc(Cl)cc1` (stereo not drawn), the EC50 is > 51.3 µM and the IC50 is > 51.3 µM.

As for `N#CC(C#N)=Cc1ccccc1C(=O)O`, the EC50 was > 200 µM and the IC50 is 110 µM.

With `CSc1c(N(C)C)c(=O)c1=S`, the EC50 was > 200 µM and the IC50 is 4.9 µM.

As for `CCC(C#N)N(Cc1ccc(CN(C(=O)c2ccccc2)C(C#N)CC)cc1)C(=O)c1ccccc1` (stereo not drawn), the EC50 is > 200 µM and the IC50 worked out at 8.71 µM.

As to `C/C(O)=C(\N=O)C(=O)Nc1ccc(Cl)cc1Cl`, the EC50 is > 339 µM and the IC50 was found to be 145 µM.

Take `COc1ccc2nc3ccccc3c(NCCCN(C)CCCl)c2c1`: the EC50 was > 200 µM and the IC50 was found to be 0.501 µM.

Regarding `Clc1ccc(OCc2nnc3n2N=C(c2ccccc2)CS3)c(Cl)c1`, the outcome was inactive.

For `NCCSSCCCCSSCCN`, the EC50 is > 200 µM and the IC50 was found to be 12.3 µM.

`O=C(Nc1cccc(O)c1)C(=O)C1C(=O)NC(=S)NC1=O`: the EC50 is > 813 µM and the IC50 was > 813 µM.

Regarding `CC[n+]1[b-](C(C)(C)C)n(/N=C/C(C)(C)C)[b-](C(C)(C)C)[n+]1CC`, the EC50 is > 200 µM and the IC50 is > 200 µM.

In the case of `O=C1CCC(=O)C(C(=O)CCC(=O)Nc2ccc(Cl)cc2)C1` (stereo not drawn), the outcome was inactive.

Regarding `CC(=O)O[C@@H]1[C@H](OC2CCCCC2(c2ccccc2)c2ccccc2)O[N+]([O-])=CC12CCCCC2` (stereo partly drawn), the EC50 was > 200 µM and the IC50 worked out at 2.69 µM.

`N#Cc1c(O)c2ccccc2[nH]c1=O`: the EC50 was > 200 µM and the IC50 was > 200 µM.

For the molecule `N#CNc1nc(N)c(-c2ccc(Cl)cc2)c(C(=O)Nc2nccs2)n1`, the EC50 was > 676 µM and the IC50 is > 676 µM.

With `CCOC(=O)C(=Cc1cccnc1C)C(=O)OCC`, the EC50 is > 692 µM and the IC50 came to 8.32 µM.

As for `OCCN1CCN(CCCN2c3cc(Cl)ccc3Sc3ccsc32)CC1`, the EC50 was > 316 µM and the IC50 came to 15.5 µM.

With `Nc1ncnc2c1ncn2C1CC(CO)C(CO)C1` (stereo not drawn), the EC50 was > 95.5 µM and the IC50 was > 95.5 µM.

Turning to `O=c1c2ccc(Br)cc2nc(-c2ccccc2)n1NC1OC(CO)C(O)C(O)C1O` (stereo not drawn), the outcome was inactive.

As to `COC(=O)CC(NC(=O)OCc1ccccc1)C(=O)NC(CC(=O)OC)C(=O)NC(CC(=O)OC)C(=O)NC(CC(=O)OC)C(=O)NC(CC(=O)OC)C(=O)NC(CC(=O)OC)C(=O)NN` (stereo not drawn) (Cbz-D(OMe)D(OMe)D(OMe)D(OMe)D(OMe)D(OMe)-NHNH2; configuration not given here), the EC50 was > 100 µM and the IC50 is > 100 µM.

Take `COC(=O)c1ccccc1C1CN=NC12Cc1c(C)cc(C)cc1C2=O` (stereo not drawn): the EC50 is > 174 µM and the IC50 came out at 28.2 µM.

With `COc1ccc(/C=C2/C(=O)C(c3ccccc3)N(c3ccccc3)C2=O)cc1OC` (stereo not drawn), the EC50 was > 200 µM and the half-inhibitory concentration (IC50) was determined as 107 µM.

As to `Cc1cccc(N=C2NC(=O)C(CC(=O)Nc3ccc(C)cc3C)S2)c1` (stereo not drawn), the EC50 is > 26.9 µM and the IC50 was > 26.9 µM.

Consider `C[N+](C)(C)CC(CC(=O)[O-])C1CC1` (stereo not drawn), for which the EC50 is > 1350 µM and the IC50 is > 1350 µM.

As for `CCCc1cc(=O)[nH]c2c3c(c4c(c12)OC(C)(C)C=C4)O[C@H](C)[C@@H](C)[C@@H]3O`, the EC50 was 0.12 µM and the IC50 came out at 2 µM.

As to `C=C(CC)C[C@@H]1C[C@]2(C(=O)OC)c3[nH]c4ccccc4c3CCN2C1=O`, the EC50 is > 200 µM and the IC50 stood at 36.3 µM.

In the case of `[N-]=[N+]=NC1=C(c2ccccn2)C(=O)c2cccc3cccc1c23`, the EC50 was > 200 µM and the IC50 came to 4.17 µM.

For the molecule `COc1cc2c(cc1OC)C(=O)/C(=C/c1ccc([N+](=O)[O-])cc1)CC2`, the EC50 was 155 µM and the IC50 was > 200 µM.

Regarding `CC1(Cl)CC(O)C2(CC1Br)C1(C)OC1C1OC1(Br)C2(C)C` (stereo not drawn), the EC50 was > 200 µM and the IC50 stood at 15.1 µM.

As to `CC1C2CC=CC(=O)[C@@]2(C)CCC12OCCO2` (stereo partly drawn), the outcome was inactive.

In the case of `O=C(O)C1CSC2c3ccccc3C(=O)N12` (stereo not drawn), the EC50 is > 200 µM and the IC50 was > 200 µM.

`O=C1c2ccccc2C(=O)c2c(NCCCNCCO)ccc(NCCCNCCO)c21`: the result was inactive.

For the molecule `O=C1/C(=C/c2ccc3c(c2)OCCO3)CCC/C1=C\c1ccc2c(c1)OCCO2`, the EC50 was > 6.92 µM and the IC50 was > 6.92 µM.

On to `C(=C\P(c1ccccc1)c1ccccc1)/P(/C=C/P(c1ccccc1)c1ccccc1)c1ccccc1`, for which the EC50 is > 4.9 µM and the IC50 is > 4.9 µM.

With `CCOC(=O)C(C)(C)Oc1ccc2c(=O)cc(-c3ccccc3)oc2c1`, the EC50 was > 53.7 µM and the IC50 was 36.3 µM.

For the molecule `c1ccc2c(c1)SCCC2NC1=NCCO1` (stereo not drawn), the EC50 was > 200 µM and the IC50 was found to be 162 µM.

Regarding `CCOC(=O)c1nc2c(Cl)c3ncccc3cc2[nH]c1=O`, the EC50 was > 200 µM and the concentration for half-maximal inhibition (IC50) was determined as 12 µM.

With `COC(=O)[C@@H]1C[C@@H](OS(=O)(=O)c2ccc(C)cc2)CN1S(=O)(=O)c1ccc(C)cc1`, the EC50 was > 200 µM and the IC50 is 33.9 µM.

For `COC(=O)C(=O)/C=C(/O)c1c(C)[nH]c2ccccc12`, the EC50 was > 200 µM and the 50% inhibitory concentration (IC50) is > 200 µM.

`CCCCCCCCCCCCCCCCCCNc1ccn(C2OC(CO)C(OP(=O)(O)OCC3CCC(n4ccc(N)nc4=O)O3)C2O)c(=O)n1` (stereo not drawn): the EC50 is 1.1 µM and the IC50 is 15.8 µM.

With `COC(=O)Cc1cc(OC)c(OC)cc1Br`, the EC50 is > 631 µM and the IC50 stood at 513 µM.

As for `CCCCCCCCCCCCCCCCOCC(CP(=O)([O-])OCC[n+]1ccccc1)OC` (stereo not drawn), the EC50 was > 5.01 µM and the IC50 worked out at 2.51 µM.

In the case of `COc1ccccc1NC(=O)C1=C(C)NC(C)=C(C(=O)Nc2ccccc2OC)C1c1ccccc1F`, the result was inactive.

As for `C[n+]1c(-c2ccc(/C=N/NC(=O)c3cc(O)c(C(=O)N/N=C/c4ccc(-c5cn6ccccc6[n+]5C)cc4)cc3O)cc2)cn2ccccc21`, the EC50 is > 6.31 µM and the IC50 is > 6.31 µM.

On to `C[C@@H]1[C@H](C)N1CC(O)Cn1ccnc1[N+](=O)[O-]` (stereo partly drawn), for which the EC50 was > 200 µM and the IC50 is > 200 µM.

For `Nc1nc(NCCO)c(N=O)c(=O)[nH]1`, the EC50 is > 182 µM and the IC50 is > 182 µM.

Turning to `NC(=O)CSSCC(N)=O`, the EC50 was 21.4 µM and the IC50 turned out to be 70.8 µM.

`CC1=CC(C)(C)C(C#N)(C#N)C(N)=C1C#N`: the EC50 was > 200 µM and the concentration for half-maximal inhibition (IC50) worked out at 95.5 µM.

`Oc1ccc(Nc2ccccc2)cc1`: the EC50 was > 141 µM and the IC50 turned out to be 24.5 µM.

For `O=C(O)c1cnccc1-c1cc(=O)[nH]n1-c1ccccc1`, the EC50 was > 200 µM and the IC50 is 30.2 µM.

Regarding `CC(=O)c1c(O)cc2c(c1O)C1CC(C)(CCC1=C(C)C)O2` (stereo not drawn), the EC50 is > 186 µM and the IC50 was 26.3 µM.

Regarding `C/C(O)=C(/C=NC(=S)C(N)=S)C(=O)Nc1ccccc1`, the EC50 was > 200 µM and the IC50 worked out at 102 µM.

In the case of `Clc1ccccc1CN1COc2c(ccc3cccnc23)C1`, the EC50 was > 30.9 µM and the IC50 stood at 1.58 µM.

Take `Nc1nccc2c1ncn2C1OC(CO)C(O)C1O` (stereo not drawn): the EC50 is > 933 µM and the IC50 amounted to 30.2 µM.

On to `COc1ccc(CCNC(=O)CCCCCO)cc1OC`, for which the EC50 was > 200 µM and the IC50 turned out to be 195 µM.

Take `O=C(Cc1nc2ccc(C(=O)c3ccccc3)cc2[nH]c1=O)C(=O)Nc1ccc(Br)cc1`: the EC50 is > 14.8 µM and the IC50 was > 14.8 µM.

`O=C(C=Nc1ccccc1C(=O)[O-])c1ccco1.O=C(C=Nc1ccccc1C(=O)[O-])c1ccco1.[Co+2]`: the EC50 was > 1.38 µM and the IC50 was > 1.38 µM.

On to `Clc1ccc2c(NCCCCCCNc3ccnc4cc(Cl)ccc34)ccnc2c1`, for which the EC50 was > 14.1 µM and the IC50 worked out at 2.4 µM.

With `CC1(C)COC(c2cccc3c2C(=O)c2cccc(Cl)c2-3)=N1`, the EC50 was > 83.2 µM and the IC50 stood at 79.4 µM.

Take `O=C1C=CC(=O)c2c1ccc1c3ccccc3n(CCCCCn3c4ccccc4c4ccc5c(c43)C(=O)C=CC5=O)c21`: the EC50 is > 200 µM and the IC50 amounted to 3.31 µM.

For the molecule `CCN=C(NC(=O)c1ccccc1Cl)SCSC(=NCC)NC(=O)c1ccccc1Cl`, the EC50 is > 200 µM and the IC50 was > 200 µM.

As for `Cc1cnc2c(c1)CCCC2C(N)=S` (stereo not drawn), the result was inactive.

For `COc1ccc(N2C(=O)c3cc(C)cnc3S2(=O)=O)cc1`, the EC50 was 141 µM and the IC50 is > 200 µM.

With `O=C(Nc1ccccc1C(=O)O)/C(=C/c1ccccc1)NC(=O)c1ccccc1`, the EC50 is > 200 µM and the IC50 is > 200 µM.

Take `CCO/S(=N/S(=O)(=O)c1ccccc1)c1ccccc1[N+](=O)[O-]` (stereo not drawn): the EC50 is > 708 µM and the IC50 amounted to 182 µM.

For the molecule `COCC(O)Cn1ccnc1[N+](=O)[O-]` (stereo not drawn), the EC50 is > 1230 µM and the IC50 is > 1230 µM.

Values taken from PubChem BioAssay AID179 (DTP/NCI, 2004).
